Experiments:
[1] = test system: Acinetobacter baumannii; assay: Antibacterial activity against clinical isolate Acinetobacter baumannii IC 19/09 expressing blaNDM-1 co-expressing blaOXA-64 assessed as meropenem MIC at 59.20 uM measured after 20 hrs by broth microdilution assay (reference value: 24 mg/L); type: functional; details: dose 59.2 µM
[2] = target: T1, 72 kDa type IV collagenase (Homo sapiens, UniProt P08253); assay: Inhibition of human recombinant MMP-2 CD at 10 uM using OMNIMMP as substrate incubated for 30 mins by fluorescence based analysis relative to control
Target sequence in this assay (P08253 110-660 limits assumed): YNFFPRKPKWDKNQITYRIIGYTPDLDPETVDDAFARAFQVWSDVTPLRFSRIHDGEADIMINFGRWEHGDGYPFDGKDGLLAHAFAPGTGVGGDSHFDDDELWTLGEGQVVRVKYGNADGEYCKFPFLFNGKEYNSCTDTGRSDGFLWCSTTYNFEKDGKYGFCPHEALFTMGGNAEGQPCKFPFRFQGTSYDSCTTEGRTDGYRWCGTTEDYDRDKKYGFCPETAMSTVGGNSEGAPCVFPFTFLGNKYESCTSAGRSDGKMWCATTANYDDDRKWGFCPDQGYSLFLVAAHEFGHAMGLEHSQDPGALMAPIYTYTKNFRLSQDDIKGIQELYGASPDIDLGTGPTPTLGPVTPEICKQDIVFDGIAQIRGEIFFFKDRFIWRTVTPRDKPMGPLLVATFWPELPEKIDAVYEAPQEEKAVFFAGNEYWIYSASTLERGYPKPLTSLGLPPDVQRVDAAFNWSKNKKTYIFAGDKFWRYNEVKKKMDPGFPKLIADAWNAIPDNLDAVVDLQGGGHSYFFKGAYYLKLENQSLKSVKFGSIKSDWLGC

[3] = test system: Klebsiella pneumoniae; assay: Antibacterial activity against clinical isolate Klebsiella pneumoniae ST1493/10 expressing blaNDM-1 co-expressing blaCMY-2like/blaTEM-1/blaCTX-M-15/blaSHV-28/blaOXA-1 and blaOXA-9 assessed as meropenem MIC at 29.60 uM measured after 20 hrs by broth microdilution assay (reference value: 12 mg/L); type: functional; details: dose 29.6 µM
[4] = test system: Escherichia coli; assay: Antibacterial activity against clinical isolate Escherichia coli 371/12 expressing blaNDM-7 co-expressing blaCTX-M-15 and blaOXA-1 assessed as meropenem MIC at 59.20 uM measured after 20 hrs by broth microdilution assay (reference value: 24 mg/L); type: functional; details: dose 59.2 µM
[5] = Inhibition of VIM-2 (unknown origin) incubated for 15 mins by absorbance based microplate reader analysis; design: species or system Bacteria
[6] = test system: Escherichia coli; assay: Antibacterial activity against clinical isolate Escherichia coli K12 J53-ST10 696/17 expressing blaNDM-1 co-expressing blaCMY-4 assessed as meropenem MIC at 59.20 uM measured after 20 hrs by broth microdilution assay (reference value: 24 mg/L); type: functional; details: dose 59.2 µM
[7] = test system: Escherichia coli; assay: Antibacterial activity against clinical isolate Escherichia coli K12 J53-ST10 696/17 expressing blaNDM-1 co-expressing blaCMY-4 assessed as meropenem MIC at 29.60 uM measured after 20 hrs by broth microdilution assay (reference value: 12 mg/L); type: functional; details: dose 29.6 µM
[8] = test system: Klebsiella pneumoniae; assay: Antibacterial activity against clinical isolate Klebsiella pneumoniae 50/20 expressing blaNDM-5 co-expressing blaTEM-1 and blaSHV-1 assessed as meropenem MIC at 59.20 uM measured after 20 hrs by broth microdilution assay (reference value: 24 mg/L); type: functional; details: dose 59.2 µM
[9] = test system: Escherichia coli; assay: Antibacterial activity against clinical isolate Escherichia coli ST1012/10 expressing blaNDM-1 co-expressing blaTEM-1/blaCTX-M-15/blaOXA-1 and blaOXA-2 assessed as meropenem MIC at 59.20 uM measured after 20 hrs by broth microdilution assay (reference value: 24 mg/L); type: functional; details: dose 59.2 µM
[10] = test system: Klebsiella pneumoniae; assay: Antibacterial activity against clinical isolate Klebsiella pneumoniae 62/07 expressing blaVIM-19 co-expressing blaSHV-1/blaCTX-M-14 and blaCMY-4 assessed as meropenem MIC at 29.60 uM measured after 20 hrs by broth microdilution assay (reference value: 12 mg/L); type: functional; details: dose 29.6 µM
[11] = test system: Escherichia coli; assay: Antibacterial activity against clinical isolate Escherichia coli 371/12 expressing blaNDM-7 co-expressing blaCTX-M-15 and blaOXA-1 assessed as meropenem MIC at 29.60 uM measured after 20 hrs by broth microdilution assay (reference value: 12 mg/L); type: functional; details: dose 29.6 µM
[12] = test system: Escherichia coli; assay: Antibacterial activity against clinical isolate Escherichia coli K12 J53-ST10 618/15 expressing blaNDM-1 assessed as meropenem MIC at 59.20 uM measured after 20 hrs by broth microdilution assay (reference value: 24 mg/L); type: functional; details: dose 59.2 µM
[13] = test system: Escherichia coli; assay: Antibacterial activity against clinical isolate Escherichia coli K12 J53-ST10 684/18 expressing blaNDM-1 co-expressing blaCMY-2 and blaOXA-10 assessed as meropenem MIC at 29.60 uM measured after 20 hrs by broth microdilution assay (reference value: 12 mg/L); type: functional; details: dose 29.6 µM
[14] = test system: Escherichia coli; assay: Antibacterial activity against clinical isolate Escherichia coli K12 J53-ST10 699/15 expressing blaNDM-1 assessed as meropenem MIC at 29.60 uM measured after 20 hrs by broth microdilution assay (reference value: 12 mg/L); type: functional; details: dose 29.6 µM
[15] = test system: Klebsiella pneumoniae; assay: Antibacterial activity against clinical isolate Klebsiella pneumoniae 50/20 expressing blaNDM-5 co-expressing blaTEM-1 and blaSHV-1 assessed as meropenem MIC at 29.60 uM measured after 20 hrs by broth microdilution assay (reference value: 12 mg/L); type: functional; details: dose 29.6 µM
[16] = target: T1, 72 kDa type IV collagenase; assay: Binding affinity to human recombinant MMP-2 CD assessed as inhibition constant using OMNIMMP as substrate incubated for 30 mins by fluorescence based analysis
Target sequence in this assay (P08253 whole entry): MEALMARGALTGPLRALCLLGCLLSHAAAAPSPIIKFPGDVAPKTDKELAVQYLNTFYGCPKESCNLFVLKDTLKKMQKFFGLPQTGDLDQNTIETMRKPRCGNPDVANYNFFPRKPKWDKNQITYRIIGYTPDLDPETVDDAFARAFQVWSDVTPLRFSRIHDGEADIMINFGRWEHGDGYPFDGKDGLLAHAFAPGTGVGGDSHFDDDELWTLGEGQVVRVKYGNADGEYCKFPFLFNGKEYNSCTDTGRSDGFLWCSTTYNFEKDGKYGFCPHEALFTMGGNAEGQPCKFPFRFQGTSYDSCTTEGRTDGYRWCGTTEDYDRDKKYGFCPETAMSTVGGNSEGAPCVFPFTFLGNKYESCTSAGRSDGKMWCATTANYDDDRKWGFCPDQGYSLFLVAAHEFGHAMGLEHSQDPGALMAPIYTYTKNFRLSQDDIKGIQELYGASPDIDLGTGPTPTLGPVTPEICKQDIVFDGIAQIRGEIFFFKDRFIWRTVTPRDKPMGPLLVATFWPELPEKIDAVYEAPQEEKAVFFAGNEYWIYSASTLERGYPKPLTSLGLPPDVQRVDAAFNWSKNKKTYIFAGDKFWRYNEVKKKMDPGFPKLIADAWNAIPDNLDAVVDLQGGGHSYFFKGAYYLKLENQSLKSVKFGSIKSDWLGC

[17] = test system: Escherichia coli; assay: Antibacterial activity against clinical isolate Escherichia coli ST1012/10 expressing blaNDM-1 co-expressing blaTEM-1/blaCTX-M-15/blaOXA-1 and blaOXA-2 assessed as meropenem MIC at 29.60 uM measured after 20 hrs by broth microdilution assay (reference value: 12 mg/L); type: functional; details: dose 29.6 µM
[18] = test system: Klebsiella pneumoniae; assay: Antibacterial activity against clinical isolate Klebsiella pneumoniae 50/11 expressing blaNDM-1 co-expressing blaTEM-1/blaSHV-28/blaTEM-1/blaCTX-M-15 and blaOXA-1 assessed as meropenem MIC at 29.60 uM measured after 20 hrs by broth microdilution assay (reference value: 12 mg/L); type: functional; details: dose 29.6 µM
[19] = test system: Escherichia coli; assay: Antibacterial activity against clinical isolate Escherichia coli K12 J53-ST10 618/15 expressing blaNDM-1 assessed as meropenem MIC at 29.60 uM measured after 20 hrs by broth microdilution assay (reference value: 12 mg/L); type: functional; details: dose 29.6 µM
[20] = test system: Klebsiella pneumoniae; assay: Antibacterial activity against clinical isolate Klebsiella pneumoniae 62/07 expressing blaVIM-19 co-expressing blaSHV-1/blaCTX-M-14 and blaCMY-4 assessed as meropenem MIC at 59.20 uM measured after 20 hrs by broth microdilution assay (reference value: 24 mg/L); type: functional; details: dose 59.2 µM
[21] = test system: Escherichia coli; assay: Antibacterial activity against clinical isolate Escherichia coli K12 J53-ST10 684/18 expressing blaNDM-1 co-expressing blaCMY-2 and blaOXA-10 assessed as meropenem MIC at 59.20 uM measured after 20 hrs by broth microdilution assay (reference value: 24 mg/L); type: functional; details: dose 59.2 µM
[22] = test system: Klebsiella pneumoniae; assay: Antibacterial activity against clinical isolate Klebsiella pneumoniae ST1493/10 expressing blaNDM-1 co-expressing blaCMY-2like/blaTEM-1/blaCTX-M-15/blaSHV-28/blaOXA-1 and blaOXA-9 assessed as meropenem MIC at 59.20 uM measured after 20 hrs by broth microdilution assay (reference value: 24 mg/L); type: functional; details: dose 59.2 µM
[23] = test system: Klebsiella pneumoniae; assay: Antibacterial activity against clinical isolate Klebsiella pneumoniae ST23213/19 expressing blaNDM-1 co-expressing blaOXA-48/blaSHV-11/blaCTX-M-15 and blaOXA-1 assessed as meropenem MIC at 59.20 uM measured after 20 hrs by broth microdilution assay (reference value: 24 mg/L); type: functional; details: dose 59.2 µM
[24] = target: Histone deacetylase 1 (Homo sapiens) (UniProt Q13547); assay: Inhibition of C-terminal 6His/FLAG-tagged human recombinant full-length HDAC1 (1 to 482(end) residues) at 10 uM using Boc-Lys-(Ac)-AMC as substrate incubated for 10 mins followed by substrate addition measured after 1 hr by fluorescence based analysis relative to control; details: time 70.0 min
Histone deacetylase 1 (Homo sapiens), sequence (Q13547 whole entry): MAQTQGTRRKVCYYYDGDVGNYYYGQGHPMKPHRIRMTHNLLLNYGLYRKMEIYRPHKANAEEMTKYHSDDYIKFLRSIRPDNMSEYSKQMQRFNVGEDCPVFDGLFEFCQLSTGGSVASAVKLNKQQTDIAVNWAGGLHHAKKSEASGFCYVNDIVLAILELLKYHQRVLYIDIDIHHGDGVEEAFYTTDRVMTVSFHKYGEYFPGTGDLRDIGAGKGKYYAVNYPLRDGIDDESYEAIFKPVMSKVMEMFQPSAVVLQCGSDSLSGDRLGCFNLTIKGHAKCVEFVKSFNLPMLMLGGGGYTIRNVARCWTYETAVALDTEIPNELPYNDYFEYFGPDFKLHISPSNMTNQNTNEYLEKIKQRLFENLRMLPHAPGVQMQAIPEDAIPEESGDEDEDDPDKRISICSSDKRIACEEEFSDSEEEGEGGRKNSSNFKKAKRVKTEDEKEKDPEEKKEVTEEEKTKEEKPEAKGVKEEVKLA

[25] = Inhibition of IMP-1 (unknown origin) expressed in Escherichia coli BL21-DE3 incubated for 15 mins by absorbance based microplate reader analysis; design: species or system Bacteria
[26] = target: Carbonic anhydrase 2 (Homo sapiens) (UniProt P00918); assay: Inhibition of human CA2 at 10 uM using pNPA as substrate preincubated for 15 mins followed by substrate by absorbance based analysis relative to control
[27] = test system: Klebsiella pneumoniae; assay: Antibacterial activity against clinical isolate Klebsiella pneumoniae ST23213/19 expressing blaNDM-1 co-expressing blaOXA-48/blaSHV-11/blaCTX-M-15 and blaOXA-1 assessed as meropenem MIC at 29.60 uM measured after 20 hrs by broth microdilution assay (reference value: 12 mg/L); type: functional; details: dose 29.6 µM
[28] = test system: Klebsiella pneumoniae; assay: Antibacterial activity against clinical isolate Klebsiella pneumoniae 50/11 expressing blaNDM-1 co-expressing blaTEM-1/blaSHV-28/blaTEM-1/blaCTX-M-15 and blaOXA-1 assessed as meropenem MIC at 59.20 uM measured after 20 hrs by broth microdilution assay (reference value: 24 mg/L); type: functional; details: dose 59.2 µM
[29] = test system: Escherichia coli; assay: Antibacterial activity against clinical isolate Escherichia coli K12 J53-ST10 699/15 expressing blaNDM-1 assessed as meropenem MIC at 59.20 uM measured after 20 hrs by broth microdilution assay (reference value: 24 mg/L); type: functional; details: dose 59.2 µM
[30] = test system: Acinetobacter baumannii; assay: Antibacterial activity against clinical isolate Acinetobacter baumannii IC 19/09 expressing blaNDM-1 co-expressing blaOXA-64 assessed as meropenem MIC at 29.60 uM measured after 20 hrs by broth microdilution assay (reference value: 12 mg/L); type: functional; details: dose 29.6 µM

MIC [1]: 1 µg/mL
inhibition [2]: > 90%
MIC [3]: 4 µg/mL
MIC [4]: ≤ 0.125 µg/mL
IC50 [5]: 610 nM
MIC [6]: ≤ 0.125 µg/mL
MIC [7]: ≤ 0.125 µg/mL
MIC [8]: ≤ 0.125 µg/mL
MIC [9]: ≤ 0.125 µg/mL
MIC [10]: 8 µg/mL
MIC [11]: 32 µg/mL
MIC [12]: ≤ 0.125 µg/mL
MIC [13]: 0.25 µg/mL
MIC [14]: 1 µg/mL
MIC [15]: 2 µg/mL
Ki [16]: 6920 nM
MIC [17]: 1 µg/mL
MIC [18]: 0.5 µg/mL
MIC [19]: ≤ 0.125 µg/mL
MIC [20]: 0.5 µg/mL
MIC [21]: ≤ 0.125 µg/mL
MIC [22]: 1 µg/mL
MIC [23]: 16 µg/mL
inhibition [24]: < 5%
IC50 [25]: 250 nM
inhibition [26]: < 5%
MIC [27]: 32 µg/mL
MIC [28]: ≤ 0.125 µg/mL
MIC [29]: ≤ 0.125 µg/mL
MIC [30]: 8 µg/mL
SMILES: O=C(O)c1cc(-c2ccccc2)c2cccc(NS(=O)(=O)c3ccccn3)c2n1

— ChEMBL document CHEMBL5365420, “Kinetics, Thermodynamics, and Structural Effects of Quinoline-2-Carboxylates, Zinc-Binding Inhibitors of New Delhi Metallo-β-lactamase-1 Re-sensitizing Multidrug-Resistant Bacteria for Carbapenems” (J Med Chem, 2023)
